{"source": "patent US8907089B2", "about": "“Fused heterocyclic ring derivative and use thereof” (Takeda Pharmaceutical Company Limited, priority 2009, dated 2014)"}
{"tested_on": "NIH-3T3/Gli reporter cells (Hedgehog signal, Gli reporter luciferase; Smo inhibitory action)", "experiment": "Gli reporter luciferase assay in NIH-3T3/Gli reporter cells stimulated with mouse Shh-N end fragment", "assay_type": "cell-based", "conditions": "NIH3T3; 1 μM compound; NIH-3T3/Gli reporter cells with mouse Shh-N end fragment culture supernatant, 48 hr; luciferase activity, control without compound as 100; read-out: inhibition rate (%) at 1 μM", "text": "Inhibition of the Hedgehog signal transduction system can be measured, for example, by quantifying a decrease in the expression level of a reporter gene connected to the downstream of the Gli binding site based on the fluorescence intensity according to the following Experimental Example 1. Alternatively, it can be measured by quantifying the expression of Gli-1 mRNA in a cell extract by quantitative PCR method and the like. A compound that inhibits Hedgehog signal targets Smo, which can be confirmed, for example, by binding fluorescence-labeled Cyclopamine and a test compound to cells expressing Smo, measuring the fluorescence level of the cell, and comparing the value with that without addition of a test compound to find a decrease.\nGli reporter plasmid was constructed by inserting 8×Gli-binding site and chicken 8-crystalline promoter into the upstream of luc+ of pGL3 (Promega).\nprepared in reference to the base sequence described in GenBank accession No.; X02187, and chicken genome DNA (Clontech) as a template. PCR reaction was performed using Pfu Turbo (Stratagene) and following the attached protocol. The obtained 108 bp fragment was digested with restriction enzymes BglII and HindIII, and inserted into BglII-HindIII site of pGL3 to give plasmid pGL3/δ-cry promoter.\nAs 8×Gli-binding site, a sequence containing eight 9-bp Gli bound consensus sequences (GACCACCCA) described in Yoon et al., J. Biol. Chem., vol. 273, pages 3496-3501 (1998) was prepared from synthetic DNA. That is, two synthetic DNAs,\nwere heat treated at 95° C. for 2 minutes, and incubated at 37° C. for 1 hr for annealing to give a double stranded DNA of the above-mentioned two synthetic DNAs. The obtained double stranded DNA was digested with restriction enzymes BglII and KpnI, and the obtained DNA fragment was inserted into BglII-KpnI site of pGL3/8-cry promoter to construct plasmid pGL3/8-cry promoter, 8×Gli binding site, i.e., Gli reporter plasmid. 2. Construction of plasmid for expression of mouse Shh-N end Fragment\nHEK293 cells were grown in D-MEM medium (Invitrogen) containing 10% fetal bovine serum in a 10 cm dish and pcDNA3.1/mShh-N was introduced into the cells using FuGENE6 (Roche Applied Science). Thereafter, the HEK293 cells were cultured in a carbon dioxide gas incubator at 37° C. for 24 hours, and the medium was exchanged with D-MEM medium (Invitrogen) containing 2% fetal bovine serum. After culturing for 48 hr, a culture supernatant containing recombinant type mouse Shh-N end fragment was obtained by filtration using a filter ([…]).\nUsing D-MEM (Invitrogen) containing 10% fetal bovine serum, expression plasmid pcDNA3.1 and Gli reporter plasmid (pGL3/8-cry promoter, 8×Gli binding site) produced by the method of Experimental Example 1 were introduced into NIH-3T3 cells grown in a 10 cm dish by the use of FuGENE6 (Roche Applied Science).\nAfter culture for 24 hr, the cells were recovered, suspended in D-MEM medium containing 10% fetal bovine serum and supplemented with Geneticin (Life Technologies Oriental, Inc.) to a final concentration of 500 μg/ml, diluted to 10^4 cells/ml, plated on a 96 well plate, and cultured in a carbon dioxide gas incubator at 37° C. to give Geneticin resistant transformed cell line.\nThe obtained transformed cell line was cultured in a 96 well plate, mouse Shh-N end fragment obtained in Experimental Example 3 was added, and NIH-3T3/Gli reporter cell, which is a cell line capable of induction of luciferase expression, was selected.\nNIH-3T3/Gli reporter cells cultured in D-MEM (Invitrogen) containing 10% fetal bovine serum were plated in a 96 well white plate at 1×10^4 cells/well, and cultured overnight in a carbon dioxide gas incubator at 37° C. The medium was removed, a compound (50 μl) and culture supernatant of mouse Shh-N end fragment-expressing HEK293 (D-MEM medium containing 2% fetal bovine serum, 50 μl) were added, and the cells were cultured for 48 hr in a carbon dioxide gas incubator at 37° C. […]", "units": {"inhibition at 1 µM": "%"}}
{"smiles": "CCc1cc2c(c(OCC(F)(F)F)c(C(=O)NC3CCN(C(=O)CO)CC3)n2C)c(=O)n1-c1ccccc1", "note": "[Example 1, 6-ethyl-N-[1-(hydroxyacetyl)piperidin-4-yl]-1-methyl-4-oxo-5-phenyl-3-(2,2,2-trifluoroethoxy)-4,5-dihydro-1H-pyrrolo[3,2-c]pyridine-2-carboxamide]", "inhibition at 1 µM": 98}
{"smiles": "CCOc1c(C(=O)NC2CCN(C(=O)CO)CC2)n(C)c2cc(CC)n(-c3ccccc3)c(=O)c12", "note": "[Example 3, 3-ethoxy-6-ethyl-N-[1-(hydroxyacetyl)piperidin-4-yl]-1-methyl-4-oxo-5-phenyl-4,5-dihydro-1H-pyrrolo[3,2-c]pyridine-2-carboxamide]", "inhibition at 1 µM": 97}
{"smiles": "CCc1cc2c(c(OC(C)C)c(C(=O)NC3CCN(C(=O)CO)CC3)n2C)c(=O)n1-c1ccccc1", "note": "[Example 4, 6-ethyl-N-[1-(hydroxyacetyl)piperidin-4-yl]-1-methyl-3-(1-methylethoxy)-4-oxo-5-phenyl-4,5-dihydro-1H-pyrrolo[3,2-c]pyridine-2-carboxamide]", "inhibition at 1 µM": 97}
{"smiles": "Cc1ccc(-n2c(C)cc3c(c(OCC(F)(F)F)c(C(=O)NC4CCN(C(=O)CO)CC4)n3C)c2=O)cc1", "note": "[Example 8, N-[1-(hydroxyacetyl)piperidin-4-yl]-1,6-dimethyl-5-(4-methylphenyl)-4-oxo-3-(2,2,2-trifluoroethoxy)-4,5-dihydro-1H-pyrrolo[3,2-c]pyridine-2-carboxamide]", "inhibition at 1 µM": 97}
{"smiles": "CCc1cc2c(c(OCC(F)(F)F)c(C(=O)NC3CCN(C(=O)CO)CC3)n2C)c(=O)n1-c1ccc(C(F)(F)F)cc1", "note": "[Example 9, 6-ethyl-N-[1-(hydroxyacetyl)piperidin-4-yl]-1-methyl-4-oxo-3-(2,2,2-trifluoroethoxy)-5-[4-(trifluoromethyl)phenyl]-4,5-dihydro-1H-pyrrolo[3,2-c]pyridine-2-carboxamide]", "inhibition at 1 µM": 97}
{"smiles": "CCOc1c(C(=O)NC2CCN(C(=O)CO)CC2)n(C)c2cc(CC)n(-c3ccc(C(F)(F)F)cc3)c(=O)c12", "note": "[Example 10, 3-ethoxy-6-ethyl-N-[1-(hydroxyacetyl)piperidin-4-yl]-1-methyl-4-oxo-5-[4-(trifluoromethyl)phenyl]-4,5-dihydro-1H-pyrrolo[3,2-c]pyridine-2-carboxamide]", "inhibition at 1 µM": 96}
{"smiles": "CCc1cc2c(c(OC(C)C)c(C(=O)NC3CCN(C(=O)CO)CC3)n2C)c(=O)n1-c1ccc(C(F)(F)F)cc1", "note": "[Example 11, 6-ethyl-N-[1-(hydroxyacetyl)piperidin-4-yl]-1-methyl-3-(1-methylethoxy)-4-oxo-5-[4-(trifluoromethyl)phenyl]-4,5-dihydro-1H-pyrrolo[3,2-c]pyridine-2-carboxamide]", "inhibition at 1 µM": 96}
{"smiles": "CCc1cc2c(c(OCC(F)(F)F)c(C(=O)NC3CCN(C(=O)CO)CC3)n2C)c(=O)n1-c1ccc(OC)cc1", "note": "[Example 12, 6-ethyl-N-[1-(hydroxyacetyl)piperidin-4-yl]-5-(4-methoxyphenyl)-1-methyl-4-oxo-3-(2,2,2-trifluoroethoxy)-4,5-dihydro-1H-pyrrolo[3,2-c]pyridine-2-carboxamide]", "inhibition at 1 µM": 97}
{"smiles": "CCOc1c(C(=O)NC2CCN(C(=O)CO)CC2)n(C)c2cc(CC)n(-c3ccc(OC)cc3)c(=O)c12", "note": "[Example 13, 3-ethoxy-6-ethyl-N-[1-(hydroxyacetyl)piperidin-4-yl]-5-(4-methoxyphenyl)-1-methyl-4-oxo-4,5-dihydro-1H-pyrrolo[3,2-c]pyridine-2-carboxamide]", "inhibition at 1 µM": 97}
{"smiles": "CCc1cc2c(c(OC(C)C)c(C(=O)NC3CCN(C(=O)CO)CC3)n2C)c(=O)n1-c1ccc(OC)cc1", "note": "[Example 14, 6-ethyl-N-[1-(hydroxyacetyl)piperidin-4-yl]-5-(4-methoxyphenyl)-1-methyl-3-(1-methylethoxy)-4-oxo-4,5-dihydro-1H-pyrrolo[3,2-c]pyridine-2-carboxamide]", "inhibition at 1 µM": 96}
{"smiles": "CCc1cc2c(c(OCC(F)(F)F)c(C(=O)NC3CCN(C(=O)CO)CC3)n2C)c(=O)n1-c1cccc(F)c1", "note": "[Example 15, 6-ethyl-5-(3-fluorophenyl)-N-[1-(hydroxyacetyl)piperidin-4-yl]-1-methyl-4-oxo-3-(2,2,2-trifluoroethoxy)-4,5-dihydro-1H-pyrrolo[3,2-c]pyridine-2-carboxamide]", "inhibition at 1 µM": 99}
{"smiles": "CCOc1c(C(=O)NC2CCN(C(=O)CO)CC2)n(C)c2cc(CC)n(-c3cccc(F)c3)c(=O)c12", "note": "[Example 16, 3-ethoxy-6-ethyl-5-(3-fluorophenyl)-N-[1-(hydroxyacetyl)piperidin-4-yl]-1-methyl-4-oxo-4,5-dihydro-1H-pyrrolo[3,2-c]pyridine-2-carboxamide]", "inhibition at 1 µM": 96}
{"smiles": "CCc1cc2c(c(OC(C)C)c(C(=O)NC3CCN(C(=O)CO)CC3)n2C)c(=O)n1-c1cccc(F)c1", "note": "[Example 17, 6-ethyl-5-(3-fluorophenyl)-N-[1-(hydroxyacetyl)piperidin-4-yl]-1-methyl-3-(1-methylethoxy)-4-oxo-4,5-dihydro-1H-pyrrolo[3,2-c]pyridine-2-carboxamide]", "inhibition at 1 µM": 95}
{"smiles": "CCc1cc2c(c(OCC(F)(F)F)c(C(=O)NC3CCN(C(=O)CO)CC3)n2C)c(=O)n1-c1ccc(F)cc1", "note": "[Example 20, 6-ethyl-5-(4-fluorophenyl)-N-[1-(hydroxyacetyl)piperidin-4-yl]-1-methyl-4-oxo-3-(2,2,2-trifluoroethoxy)-4,5-dihydro-1H-pyrrolo[3,2-c]pyridine-2-carboxamide]", "inhibition at 1 µM": 96}
{"smiles": "CCOc1c(C(=O)NC2CCN(C(=O)CO)CC2)n(C)c2cc(CC)n(-c3ccc(F)cc3)c(=O)c12", "note": "[Example 21, 3-ethoxy-6-ethyl-5-(4-fluorophenyl)-N-[1-(hydroxyacetyl)piperidin-4-yl]-1-methyl-4-oxo-4,5-dihydro-1H-pyrrolo[3,2-c]pyridine-2-carboxamide]", "inhibition at 1 µM": 96}
{"smiles": "CCc1cc2c(c(OC(C)C)c(C(=O)NC3CCN(C(=O)CO)CC3)n2C)c(=O)n1-c1ccc(F)cc1", "note": "[Example 22, 6-ethyl-5-(4-fluorophenyl)-N-[1-(hydroxyacetyl)piperidin-4-yl]-1-methyl-3-(1-methylethoxy)-4-oxo-4,5-dihydro-1H-pyrrolo[3,2-c]pyridine-2-carboxamide]", "inhibition at 1 µM": 97}
